Here are results for six compounds from US9528990B2, “Fluorogenic/fluorescent probes derivative from sulfoxanthene, and use thereof” (bioMérieux, priority 2014, dated 2016).

One test relates to pig liver esterase (PLE). As to the kind of experiment: Kinetic study with carboxylesterase. The class given is biochemical. As to conditions: about 5 μM, PBS pH 7.4, 10 units PLE, 37° C.; ex 540 nm (SR101-NaphtOAc) or 530 nm (SR101-NaphtO-lauric acid). The method, then:
1. A kinetic study of SR101-NaphtOAc was carried out by incubating this fluorogenic substrate, previously solubilized in phosphate buffered saline (pH 7.4) at a concentration of about 5 μM, with 10 units of pig liver esterase (PLE), at 37° C. The evolution of the intensity of fluorescence at 600 nm, emitted under an excitation wavelength of 540 nm, was recorded and is presented in FIG. 5a. 2. A kinetic study of SR101-NaphtO-lauric acid was carried out by incubating this fluorogenic substrate, previously solubilized in phosphate buffered saline (pH 7.4) at a concentration of about 5 μM, with 10 units of pig liver esterase (PLE), at 37° C. The evolution of the intensity of fluorescence at 600 nm, emitted under an excitation wavelength of 530 nm, was recorded and is presented in FIG. 5b.

A short description of test [1]: Chemically simulated myeloperoxidase activity with sodium hypochlorite. The settings on record: about 10 μM, PBS pH 7.4, 150 equivalents sodium hypochlorite, 25° C.; ex 540 nm. On the procedure:
A kinetic study of SR101-NaphtO(para-aminophenyl) acid was carried out by incubating this fluorogenic substrate, previously solubilized in phosphate buffered saline (pH 7.4) at a concentration of about 10 μM, with 150 equivalents of sodium hypochlorite, at 25° C.
This chemical procedure using sodium hypochlorite is routinely used to simulate a myeloperoxidase activity (Shepherd et al., Chemistry and Biology, 2007, 14: 1221-1231).
The evolution of the intensity of fluorescence at 650 nm, emitted under an excitation wavelength of 540 nm, was recorded and is presented in FIG. 7.

For test [2], the system named is sulfatase from Helix pomatia. As to the kind of experiment: Kinetic study with sulfatase. The class given is biochemical. As to conditions: about 10 μM, PBS pH 7.4, 7.8 units sulfatase, 37° C.; ex 540 nm. The method, then: A kinetic study of SR101-NaphtO(SO3H) was carried out by incubating this fluorogenic substrate, previously solubilized in phosphate buffered saline (pH 7.4) at a concentration of about 10 μM, with 7.8 units of a sulfatase from Helix pomatia, at 37° C. The evolution of the intensity of fluorescence at 600 nm, emitted under an excitation wavelength of 540 nm, was recorded and is presented in FIG. 6.

Test [3] addresses nitroreductase from Escherichia coli (NfsA) (Escherichia coli, UniProt P17117). As to the kind of experiment: Kinetic study of SR101-NO2 with purified nitroreductase. The test is classed as biochemical. On the procedure: A kinetic study was carried out by incubating the substrate SR101-NO2 in PBS at 37.5° C., at a concentration of about 5 μM.
Successive additions of NADH and nitroreductase from Escherichia coli (NfsA=4×2.5 μg) were performed and the fluorescence at 575 nm (emission maximum of SR101-110) was measured, under an excitation wavelength of 500 nm.

In test [4] the test system is E. coli strain (ATCC 25922). As to the kind of experiment: Reduction of SR101-NO2 by growing E. coli cells, followed by fluorescence. The class given is cell-based, Escherichia coli. As to conditions: about 10^6 cfu/ml, Trypcase Soya Broth, 37° C.; 0-100 μM as SR101-110/SR101-NO2 about 10/90; ex 550 nm, em 580 nm (FIG. 1c). The method, then: The reduction of SR101-NO2 by an E. coli strain (ATCC 25922), known for its nitroreduction ability, was analyzed in fluorescence.
This kinetic study was carried out with an initial concentration of cells around 10^6 cfu/ml, growing in Trypcase Soya Broth at 37° C., in presence of different concentrations of fluorogenic substrate (from 0 μM to 100 μM). For this study, said fluorogenic substrate is used in the form of a SR101-110/SR101-NO2 (with a ratio of about 10/90).
The fluorescence at 580 nm was measured, under an excitation wavelength of 550 nm.

In the next test the test system is E. coli K12. As to the kind of experiment: Bacterial azoreduction overnight, compared with Methyl Red. The class given is cell-based. The settings on record: 100 μM, overnight 37° C. The method, then: a) The bacterial reduction of SR101-Q-CO2H was compared to the one of Methyl Red, an azo dye. Each molecule at 100 μM in Trypcase Soya Broth in presence 7.5*10^7 colonies forming unit (cfu) of E. coli K12 was incubated overnight at 37° C. The fluorescence produced by the azoreduction of Methyl Red was measured at 395 nm under an excitation wavelength of 250 nm. The fluorescence produced by the azoreduction of SR101-Q-CO2H was measured at 580 nm under an excitation wavelength of 550 nm. For Methyl Red the ratio between medium with and without bacteria was 469/184 (×2.5). For SR101-Q-CO2H, it was 19 times upper: 17269/363 (×48).

The mark [5] stands for this setting: emitted fluorescence before and after the reduction (FIG. 1b).

Chain of nitroreductase from Escherichia coli (NfsA) (P17117 whole entry): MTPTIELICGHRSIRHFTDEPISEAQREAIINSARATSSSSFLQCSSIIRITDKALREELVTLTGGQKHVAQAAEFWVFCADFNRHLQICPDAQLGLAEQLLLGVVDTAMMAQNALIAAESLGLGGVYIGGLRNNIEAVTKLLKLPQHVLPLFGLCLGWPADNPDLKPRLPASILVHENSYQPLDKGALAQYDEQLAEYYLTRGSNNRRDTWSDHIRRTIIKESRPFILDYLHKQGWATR

On to `CC(=O)Oc1ccc2c3c(ccc2c1)C(c1ccc(S(=O)(=O)[O-])cc1S(=O)(=O)O)=c1cc2c4c(c1O3)CCC[N+]=4CCC2` [SR101-NaphtOAc], for which the “fluorescence at 600 nm after addition of the esterase” value with pig liver esterase (PLE) is recorded as “remarkable fluorescence enhancement”.

With `Nc1ccc(Oc2ccc3c4c(ccc3c2)C(c2ccc(S(=O)(=O)O)cc2S(=O)(=O)O)=c2cc3c5c(c2O4)CCC[N+]=5CCC3)cc1` [SR101-NaphtO(para-aminophenyl)], the “fluorescence at 650 nm after addition of sodium hypochlorite” value in test [1] was “remarkable fluorescence enhancement”.

As to `O=S(=O)(O)Oc1ccc2c3c(ccc2c1)C(c1ccc(S(=O)(=O)[O-])cc1S(=O)(=O)O)=c1cc2c4c(c1O3)CCC[N+]=4CCC2` [SR101-NaphtO(SO3H)], the “fluorescence at 600 nm after addition of the sulfatase” value in test [2] is recorded as “remarkable fluorescence enhancement”.

Turning to `O=[N+]([O-])c1ccc2c(c1)Oc1c3c4c(cc1=C2c1ccc(S(=O)(=O)O)cc1S(=O)(=O)[O-])CCC[N+]=4CCC3` [SR101-NO2], the “reduction of the substrate by nitroreductase” value in test [3] (5 μM substrate, total 10 μg enzyme (4×2.5 μg), after an hour of incubation at 37.5° C.) was “complete reduction”. Besides, in test [3] (NADH 0.5 mM, no enzyme, about 5 μM substrate in PBS, 37.5° C., ex 500 nm, em 575 nm), the “influence of NADH alone on the evolution of the fluorescence” value is “did not influence”. Also, in test [3] (setting [5]), the “fluorescence enhancement (factor)” value is given as 15 and the quenching efficiency came to 92%. Also, the “nitroreduction by growing cells (fluorescence evolution)” value in test [4] is “progressive nitroreduction”.

`CCCCCCCCCCCC(=O)Oc1ccc2c3c(ccc2c1)C(c1ccc(S(=O)(=O)O)cc1S(=O)(=O)O)=c1cc2c4c(c1O3)CCC[N+]=4CCC2` [SR101-NaphtO-lauric acid]: the “fluorescence at 600 nm after addition of the esterase” value with pig liver esterase (PLE) is on record as “remarkable fluorescence enhancement”. On to `CN(C)c1ccc(/N=N/c2ccccc2C(=O)O)cc1` [Methyl Red], for which the “fluorescence of medium with bacteria” value in the test with E. coli K12 (Trypcase Soya Broth, 7.5*10^7 cfu, Methyl Red ex 250/em 395 nm, SR101-Q-CO2H ex 550/em 580 nm) is 469. Moreover, in the test with E. coli K12, the “ratio between medium with and without bacteria (×)” value was found to be 2.5.
